From patent US20260234136A1, “ISOXAZOLIDINES AS RIPK1 INHIBITORS AND USE THEREOF” (GENZYME CORPORATION, priority 2023, published 2026)
Values after ≈ are worked out from the molar mass of the structure shown.

What was measured:
U937 cells = assay: Cellular assay in U937 cells to measure the activity of RIPK1-inhibitors on cell death (necroptosis); assay type: cell-based; conditions: Homo sapiens, U-937, 50 μM zVAD.fmk and 100 ng/ml recombinant human TNFα, overnight (18 to 24 hrs), MTS readout
Experimental: Absorbance of formazan was read at 490 nm. The inhibitory activity of the test compound was quantified in a concentration response curve (CRC) experiment.
Compounds were obtained as 10 mM stock solutions and were diluted 1 to 10 volumes with DMSO to yield a 1 mM solution. From this solution 2 μl were diluted with 998 μl growth medium.
U937 cells were cultured in RPMI1640 Glutamax and 10% heat inactivated FBS. […] 50 μl of compound dilutions, as described in Cellular assay in U937 cells, were added and the cell suspension incubated overnight (18 to 24 hrs) at 37° C., 5% CO2 in a humidified atmosphere (95% rH).
CellTiter 96 Aqueous reagent was mixed (100 μl PMS (phenazine methosulfate) solution/2 ml MTS (3-(4,5-[…])-5-(3-carboxymethoxyphenyl)-2-(4-sulfophenyl)-2H-tetrazolium, inner salt) solution) and 20 μl were added per well. After 4 hrs incubation at 37° C. (5% CO2 95% rH) optical density was measured at 490 nm on a microplate reader (Tecan Infinite M1000).
The % inhibition is expressed as percentage of the maximal inhibition value obtained in the absence of TNFα/zVAD.fmc.

physchem = conditions: 50 mM phosphate buffer, 25 °C, pH 7.4, aqueous buffer, thermodynamic from solid

Row | SMILES | IC50 (U937 cells) [µM] | solubility at 16 h (physchem) [µM]
1 | O=C(C1CCN(c2nccc(-c3ncco3)n2)CC1)N1OCC[C@H]1c1cnccn1 [Example 11, [1-(4-oxazol-2-ylpyrimidin-2-yl)-4-piperidyl]-[(3S)-3-pyrazin-2-ylisoxazolidin-2-yl]methanone] | 0.01 | > 2780
2 | O=C(C1CCN(c2ncc(F)c(-c3ncco3)n2)CC1)N1OCC[C@H]1c1cnccn1 [Example 12, [1-(5-fluoro-4-oxazol-2-yl-pyrimidin-2-yl)-4-piperidyl]-[(3S)-3-pyrazin-2-ylisoxazolidin-2-yl]methanone] | 0.001 | > 1180
3 | O=C(C1CCN(c2ncnc(-c3nccs3)n2)CC1)N1OCC[C@H]1c1cnccn1 [Example 14, [(3S)-3-pyrazin-2-ylisoxazolidin-2-yl]-[1-(4-thiazol-2-yl-1,3,5-triazin-2-yl)-4-piperidyl]methanone] | 0.009 | > 1180
4 | Cc1cnn(-c2nccc(N3CCC(C(=O)N4OCC[C@H]4c4ccc(C)nc4)CC3)n2)c1 [Example 16, [1-[2-(4-methylpyrazol-1-yl)pyrimidin-4-yl]-4-piperidyl]-[(3S)-3-(6-methyl-3-pyridyl)isoxazolidin-2-yl]methanone] | 0.053 | 169 (≈ 73.2 µg/mL)
5 | Cc1ncc([C@@H]2CCON2C(=O)C2CCN(c3nccc(-n4ccnc4C)n3)CC2)cc1F [Example 20, [(3S)-3-(5-fluoro-6-methyl-3-pyridyl)isoxazolidin-2-yl]-[1-[4-(2-methylimidazol-1-yl)pyrimidin-2-yl]-4-piperidyl]methanone] | 0.001 | 21.4 (≈ 9.66 µg/mL)
6 | Cc1ncc([C@@H]2CCON2C(=O)C2CCN(c3cc(-n4ccnc4C)ncn3)CC2)cc1F [Example 21, [(3S)-3-(5-fluoro-6-methyl-3-pyridyl)isoxazolidin-2-yl]-[1-[6-(2-methylimidazol-1-yl)pyrimidin-4-yl]-4-piperidyl]methanone] | 0.073 | > 1110
7 | Cc1nc([C@@H]2CCON2C(=O)C2CCN(c3ncnc(-n4ccnc4C)n3)CC2)cs1 [Example 23, [1-[4-(2-methylimidazol-1-yl)-1,3,5-triazin-2-yl]-4-piperidyl]-[(3S)-3-(2-methylthiazol-4-yl)isoxazolidin-2-yl]methanone] | 0.001 | > 1140
8 | Cn1nccc1-c1nccc(N2CCC(C(=O)N3OCC[C@H]3c3cnccn3)CC2)n1 [Example 24, [1-[2-(2-methylpyrazol-3-yl)pyrimidin-4-yl]-4-piperidyl]-[(3S)-3-pyrazin-2-ylisoxazolidin-2-yl]methanone] | 0.009 | > 1190
9 | O=C(C1CCN(c2nc(-c3cncnc3)ncc2F)CC1)N1OCC[C@H]1c1cnccn1 [Example 25, [1-(5-fluoro-2-pyrimidin-5-yl-pyrimidin-4-yl)-4-piperidyl]-[(3S)-3-pyrazin-2-ylisoxazolidin-2-yl]methanone] | 0.015 | 69.2 (≈ 30.2 µg/mL)
10 | Cc1nccn1-c1nccc(N2CCC(C(=O)N3OCC[C@H]3c3cnccn3)CC2)n1 [Example 29, (S)-(1-(2-(2-methyl-1H-imidazol-1-yl)pyrimidin-4-yl)piperidin-4-yl)(3-(pyrazin-2-yl)isoxazolidin-2-yl)methanone] | 0.006 | > 1190
11 | Cc1nccn1-c1ccnc(N2CCC(C(=O)N3OCC[C@H]3c3cnccn3)CC2)n1 [Example 30, (S)-(1-(4-(2-methyl-1H-imidazol-1-yl)pyrimidin-2-yl)piperidin-4-yl)(3-(pyrazin-2-yl)isoxazolidin-2-yl)methanone] | 0.003 | > 1190
12 | Cc1nccn1-c1cc(N2CCC(C(=O)N3OCC[C@H]3c3cnccn3)CC2)ncn1 [Example 31, (S)-(1-(6-(2-methyl-1H-imidazol-1-yl)pyrimidin-4-yl)piperidin-4-yl)(3-(pyrazin-2-yl)isoxazolidin-2-yl)methanone] | 0.032 | > 1190
13 | Cc1ccc([C@@H]2CCON2C(=O)C2CCN(c3nccc(-c4ncco4)n3)CC2)cn1 [Example 37, [(3S)-3-(6-methylpyridin-3-yl)-1,2-oxazolidin-2-yl]-[1-[4-(1,3-oxazol-2-yl)pyrimidin-2-yl]piperidin-4-yl]methanone] | 0.041 | 34.7 (≈ 14.6 µg/mL)
14 | Cc1ccc([C@@H]2CCON2C(=O)C2CCN(c3ncnc(-c4nccs4)n3)CC2)cn1 [Example 38, [(3S)-3-(6-methylpyridin-3-yl)-1,2-oxazolidin-2-yl]-[1-[4-(1,3-thiazol-2-yl)-1,3,5-triazin-2-yl]piperidin-4-yl]methanone] | 0.051 | 275 (≈ 120 µg/mL)
15 | Cc1nc([C@@H]2CCON2C(=O)C2CCN(c3cc(-c4ncnn4C)ncn3)CC2)cs1 [Example 40, [(3S)-3-(2-methyl-1,3-thiazol-4-yl)-1,2-oxazolidin-2-yl]-[1-[6-(2-methyl-1,2,4-triazol-3-yl)pyrimidin-4-yl]piperidin-4-yl]methanone] | 0.04 | 136 (≈ 60 µg/mL)
16 | Cc1ncc([C@@H]2CCON2C(=O)[C@@H]2CCN(c3cc(-c4ncnn4C)ncn3)CC23CC3)cc1F [Example 43, [(3S)-3-(5-fluoro-6-methylpyridin-3-yl)-1,2-oxazolidin-2-yl]-[(8R)-5-[6-(2-methyl-1,2,4-triazol-3-yl)pyrimidin-4-yl]-5-azaspiro[2.5]octan-8-yl]methanone] | 0.057 | > 1040
17 | Cc1ccc([C@@H]2CCON2C(=O)[C@@H]2CCN(c3nccc(N4CCCC4=O)n3)CC23CC3)cn1 [Example 44, 1-[2-[(8R)-8-[(3S)-3-(6-methylpyridin-3-yl)-1,2-oxazolidine-2-carbonyl]-5-azaspiro[2.5]octan-5-yl]pyrimidin-4-yl]pyrrolidin-2-one] | 0.025 | 380 (≈ 176 µg/mL)
18 | Cc1ncc([C@@H]2CCON2C(=O)C2CCN(c3ncnc(-c4ccnn4C)n3)CC2)cc1F [Example 45, [(3S)-3-(5-fluoro-6-methylpyridin-3-yl)-1,2-oxazolidin-2-yl]-[1-[4-(2-methylpyrazol-3-yl)-1,3,5-triazin-2-yl]piperidin-4-yl]methanone] | 0.001 | 904 (≈ 409 µg/mL)
19 | O=C1CCCN1c1ccnc(N2CCC(C(=O)N3OCC[C@H]3c3cncc(F)c3)CC2)n1 [Example 46, 1-[2-[4-[(3S)-3-(5-fluoropyridin-3-yl)-1,2-oxazolidine-2-carbonyl]piperidin-1-yl]pyrimidin-4-yl]pyrrolidin-2-one] | 0.018 | > 1140
20 | O=C1CCCCN1c1ccnc(N2CCC(C(=O)N3OCC[C@H]3c3cnccn3)CC2)n1 [Example 47, 1-[2-[4-[(3S)-3-pyrazin-2-yl-1,2-oxazolidine-2-carbonyl]piperidin-1-yl]pyrimidin-4-yl]piperidin-2-one] | 0.071 | > 1140
21 | Cc1ncc([C@@H]2CCON2C(=O)[C@@H]2CCN(c3ncnc(-c4ccnn4C)n3)CC23CC3)cc1F [Example 48, [(3S)-3-(5-fluoro-6-methylpyridin-3-yl)-1,2-oxazolidin-2-yl]-[(8R)-5-[4-(2-methylpyrazol-3-yl)-1,3,5-triazin-2-yl]-5-azaspiro[2.5]octan-8-yl]methanone] | 0.003 | 231 (≈ 111 µg/mL)
22 | Cc1cncc([C@@H]2CCON2C(=O)C2CCN(c3nccc(N4CCCC4=O)n3)CC2)c1 [Example 50, 1-[2-[4-[(3S)-3-(5-methylpyridin-3-yl)-1,2-oxazolidine-2-carbonyl]piperidin-1-yl]pyrimidin-4-yl]pyrrolidin-2-one] | 0.033 | > 1150
23 | Cc1nc([C@@H]2CCON2C(=O)C2CCN(c3nccc(N4CCC5(CC5)C4=O)n3)CC2)cs1 [Example 52, 5-[2-[4-[(3S)-3-(2-methyl-1,3-thiazol-4-yl)-1,2-oxazolidine-2-carbonyl]piperidin-1-yl]pyrimidin-4-yl]-5-azaspiro[2.4]heptan-4-one] | 0.024 | 321 (≈ 151 µg/mL)
24 | Cc1ncc([C@@H]2CCON2C(=O)C2CCN(c3nccc(N4CCCC4=O)n3)CC2)cc1F [Example 56, 1-[2-[4-[(3S)-3-(5-fluoro-6-methylpyridin-3-yl)-1,2-oxazolidine-2-carbonyl]piperidin-1-yl]pyrimidin-4-yl]pyrrolidin-2-one] | 0.021 | > 1100
25 | O=C(C1CCN(c2nccc(N3CCCC4(CC4)C3=O)n2)CC1)N1OCC[C@H]1c1cnccn1 [Example 57, 5-[2-[4-[(3S)-3-pyrazin-2-yl-1,2-oxazolidine-2-carbonyl]piperidin-1-yl]pyrimidin-4-yl]-5-azaspiro[2.5]octan-4-one] | 0.059 | > 1080
26 | Cc1nc([C@@H]2CCON2C(=O)C2CCN(c3nccc(N4CCC(F)(F)C4=O)n3)CC2)cs1 [Example 59, 3,3-difluoro-1-[2-[4-[(3S)-3-(2-methyl-1,3-thiazol-4-yl)-1,2-oxazolidine-2-carbonyl]piperidin-1-yl]pyrimidin-4-yl]pyrrolidin-2-one] | 0.08 | 217 (≈ 104 µg/mL)
27 | Cc1ncc([C@@H]2CCON2C(=O)C2CCN(c3nccc(N4CCOC4=O)n3)CC2)cc1F [Example 65, 3-[2-[4-[(3S)-3-(5-fluoro-6-methylpyridin-3-yl)-1,2-oxazolidine-2-carbonyl]piperidin-1-yl]pyrimidin-4-yl]-1,3-oxazolidin-2-one] | 0.006 | 209 (≈ 95.5 µg/mL)
